Experimental data: article PMC11591307, “An RGD-Conjugated Prodrug Nanoparticle with Blood–Brain–Barrier Penetrability for Neuroprotection Against Cerebral Ischemia–Reperfusion Injury” (Antioxidants, 2024)
Residues, ends and D or L forms follow the SMILES beside them. *: point of attachment. X1 = C[C@@H]1[C@H]2[C@H](O[C@@H]3O[C@H](CO)[C@@H](O)[C@H](O)[C@H]3O)OC=C(C(=O)*)[C@H]2C[C@@H]1O

What was measured:
BEnd.3 cells [1] = assay: MTT cytotoxicity assay on BEnd.3 cells; type: cell-based, Mouse; conditions: 24 h treatment, all three concentrations, Figure S6
Procedure: Mouse brain microvascular endothelial cells (BEnd.3) were cultured in DMEM medium containing 10% FBS and maintained at 37 °C in a humidified atmosphere with 5% CO2. Drug solutions were prepared by diluting in PBS to the desired concentrations. Cells were seeded at a density of 4000 cells per well in 96-well plates. Once the cells had adhered, 25 μL of LA-1 or loganin solutions at varying concentrations were added to each well, followed by a 24 h incubation. BEnd.3 cells were treated with 3.12 or 6.25 μM of LA-1 or loganin for 24 h, followed by exposure to 200 μM tertiary-butylhydroperoxide (TBHP) for 4 h to induce oxidative stress. After the treatments, 25 μL of MTT solution (5 mg/mL) was added to each well, and the cells were incubated for an additional 4 h. The supernatant was then carefully removed, and the formazan crystals were dissolved in 150 μL of DMSO. Plates were shaken at room temperature for 15 min, and absorbance was measured at 490/570 nm using a microplate reader (Molecular Devices, SpectraMax ABS, San Jose, CA, USA). Cell viability = (Absorbance (drug well))/(Absorbance (control well)) × 100%

[2] = In vivo pharmacokinetic study, plasma; parameters: species or system rat; conditions: SD rats, intravenous tail injection 30 mg/kg, LC-MS/MS, n = 3
Procedure: We purchased male Sprague-Dawley (SD) rats weighing between 200 and 220 g, which had been catheterized in the jugular vein, from Beijing Sinocon Pharmaceutical Technology Co., Ltd. (Beijing, China). The rats were divided into two groups: LA-1 group and loganin group, with three rats in each group. First, 200 μL of whole blood was collected from each rat at time point zero as a blank control. Subsequently, LA-1 and loganin were administered tail via injection at a dose of 30 mg/kg, dissolved in 0.9% saline. For the pharmacokinetics of the intravenously administered drugs, blood samples of 200 μL were collected from the rats at 5, 15, 30, 45 min, 1, 1.5, 2, 3, 6, 8, 12, and 24 h, using heparinized anticoagulation tubes for processing. After each blood collection, 200 μL of perfusion solution was injected into the rats through the catheter to maintain their physiological status. To obtain the rat plasma, the samples were centrifuged immediately at 3500 rpm for 10 min (5810R) after collection. Methanol (300 μL) was added to plasma samples (100 μL) to precipitate plasma proteins, then rotary evaporation at 35 °C was used to remove methanol from the samples. The LA-1 and loganin were quantified by LC–MS/MS analysis (ACQUITY UPLC I-Class/Xevo TQ-XS, Waters, Milford, MA, USA).

BEnd.3 cells [3] = assay: Impact of integrin αvβ3 inhibitor c(RGDfK) on LA-1 uptake in BEnd.3 cells; type: in vitro ADME, Mouse; conditions: BEnd.3 cells pretreated 1 h with 100 μM c(RGDfK) (method: 20 nM), then 6.25 μM compound for 3 or 6 h, LC-MS/MS
Procedure: BEnd.3 cells were seeded at 2 × 10⁶ cells/mL in […], with 5 mL DMEM containing 10% FBS. After 12 h, the medium was replaced with 5 mL fresh medium and 1 mL 20 nM c(RGDfK). After 1 h, 1 mL of 6.25 μM compound solution was added, followed by incubation for 3 or 6 h. Cells were washed twice with PBS, collected in 1 mL of HPLC-grade methanol, and centrifuged at 13,300 rpm for 5 min (6766-HS corning® High Speed Microcentrifuge, Corning, NY, USA). The supernatant was concentrated and reconstituted in 200 μL methanol before a final 10 min centrifugation. The supernatant was then used for LC–MS/MS (ACQUITY UPLC I-Class/Xevo TQ-XS, Waters, Milford, MA, USA) analysis.

[4] = Intra-brain distribution after ischemic injury; type: in vivo, rat; conditions: MCAO rats, LA-1 10 mg/kg vs loganin 30 mg/kg i.v., 3 h after administration, right hemisphere, LC-MS/MS, n = 3
Procedure: To investigate the distribution of LA-1 and loganin within the brain, the experimental protocol was as follows: First, the rats were subjected to 2 h of induced ischemia, after which the filament was removed to allow for reperfusion. Subsequently, LA-1 (10 mg/kg) and loganin (30 mg/kg) were administered via tail vein injection. […] At the 3 h time point, the rats were anesthetized, perfused with saline via the heart, and then euthanized to collect brain tissue. The brain tissue was divided into left and right hemispheres, with the right hemisphere representing the ischemic region. The right hemisphere was placed into a 5 mL centrifuge tube, and 600 μL of pre-chilled PBS was added, followed by homogenization on ice. A 200 μL aliquot of the homogenate was combined with 200 μL of chromatography-grade methanol and 200 μL of chromatography-grade acetonitrile, and subjected to ultrasonic treatment for 5 min. The mixture was then centrifuged at 13,000 rpm for 10 min at 4 °C, and the supernatant was collected for concentration. After concentration, 200 μL of chromatography-grade methanol was added for reconstitution, followed by another round of high-speed centrifugation to obtain the supernatant. Finally, the target molecules were quantified using LC–MS/MS (ACQUITY UPLC I-Class/Xevo TQ-XS, Waters, Milford, MA, USA). […]

[5] = H&E staining of heart, liver, spleen and kidney (biosafety in vivo); parameters: species or system rat; conditions: Figure S7
Procedure: (§1) Fresh brain, heart, liver, spleen, and kidney tissues from rats were fixed in 4% paraformaldehyde, dehydrated, embedded in paraffin, and sectioned into 4 µm slices. For HE staining, the sections were deparaffinized using a dewaxing agent (G1128, Solarbio, Beijing, China), rehydrated in ethanol of various concentrations, stained with hematoxylin and eosin, dehydrated, and sealed with neutral resin. For Nissl staining, thin sections were immersed in the staining solution for 15 min (G1086, Solarbio, Beijing, China), washed with water, rapidly dehydrated with absolute ethanol, and cleared in xylene for 5 min. The sections were then mounted with neutral resin. Finally, the sections were observed using a light microscope (Nikon Eclipse E100, Tokyo, Japan) and analyzed with a 3D viewer.

BEnd.3 cells [6] = assay: Cellular uptake in BEnd.3 cells (LC-MS/MS); type: in vitro ADME, Mouse; conditions: 6.25 μM; for Intracellular amount over time: 3 or 6 h incubation
Procedure: BEnd.3 cells were seeded in 60mm dishes at 2 × 10⁶ cells/mL, with 5 mL of DMEM containing 10% FBS. After 12 h, the medium was replaced with 5 mL fresh medium, followed by 1 mL of 6.25 μM LA-1 solution. Cells were incubated for 3 or 6 h, washed twice with PBS, and harvested using 1 mL of HPLC-grade methanol. After vortexing for 2 min and centrifuging at 13,300 rpm for 5 min (6766-HS corning® High Speed Microcentrifuge, Corning, NY, USA), the supernatant was concentrated and reconstituted with 200 μL methanol. Samples were centrifuged again at 13,300 rpm for 10 min, and the supernatant was analyzed via LC–MS (ACQUITY UPLC I-Class/Xevo TQ-XS, Waters, Milford, MA, USA). Standard curves were prepared by serial dilutions of HPLC-grade methanol with concentrations ranging from 1 μg/mL to 100 pg/mL for each LA-1.

MCAO rats = assay: MCAO cerebral ischemia-reperfusion injury model; type: in vivo, rat; conditions: for Neurological score (Zelonga): 22 h post-treatment, loganin 30 mg/kg, LA-1 10 mg/kg i.v.; for Neurological score (Zelonga) / Infarct area versus model (TTC staining): edaravone 3 mg/kg
Procedure: A selection of 6–8-week-old Sprague–Dawley (SD) male rats weighing 250 to 280 g were divided into five groups, with 12 rats in each group: sham group, model group (MCAO), edaravone group (3 mg/kg), LA-1 group (10 mg/kg), and loganin group (30 mg/kg). In all groups of rats, anesthesia was induced with 3% isoflurane and then maintained at 2.5% isoflurane during surgery. Briefly, a 1–2 cm incision was made along the midline of the rat’s neck to expose the right carotid artery. Then, a nylon suture (A5-243650, Beijing Cinontech Co. Ltd., Beijing, China) coated with silica gel was inserted through the external carotid artery (ECA) into the middle […], which was then occluded. In this instance, the monofilament was not inserted in the sham group. After 2 h, the nylon suture was removed to allow reperfusion, and different drugs were immediately administered to the rats via the tail vein. Additionally, the sham and model groups received an equivalent dose of distilled water, with a dosage of 2 mL/kg. Cerebral blood flow was measured using a laser speckle flow imaging system (RWD Life science Co., Ltd., RFLSI ZW, Shenzhen, China) at three distinct time points: before ischemia, 2 h after ischemia, and 22 h after reperfusion. Neurological function scores for the treatment groups were assessed blindly at 22 h post-MCAO using the ZeLonga scoring system, after which the anesthetized rats were quickly euthanized. The brain tissue was harvested and then sectioned into seven slices, with six slices subjected to 2,3,5-triphenyltetrazolium chloride (TTC) staining to calculate the brain infarct area, while the remaining slice was preserved for future use.
as §1
Paraffin sections were prepared as described for HE staining. The sections were dewaxed and antigen retrieval was performed using citric acid (pH 6.0). The sections were blocked in 0.1% Triton in PBS for 15 min. TUNEL reaction solution (TDT:dUTP:buffer = 1:5:50) was added, followed by blocking with BSA. After washing, sections were incubated with the secondary antibody (Cy3-goat anti-rabbit, GB21303, 1:300) at room temperature for 50 min. Finally, after PBS washing, the sections were stained with DAPI, mounted with an anti-fading mounting medium, and images were acquired using a fluorescence microscope (Nikon Eclipse C1, Tokyo, Japan).

[7] = Particle size and zeta potential; type: physicochemical; conditions: laser nanoparticle sizer Nano-ZS90
Procedure: The size distribution and zeta potential of LA-1 and loganin were determined using a laser nanoparticle sizer (Nano-ZS90, Malvern Instruments Ltd., Malvern, Worcestershire, UK).

[8] = Morphology by TEM, SEM and AFM; type: physicochemical; conditions: SEM, AFM, samples in deionized water, dried
Procedure: Each sample was further diluted to 0.1 mg/mL, and 10 μL was placed dropwise onto copper grids and dried at room temperature for 7 days. Transmission electron microscopy (TEM, […], Tokyo, Japan) and scanning electron microscopy (SEM, Hitachi, S-4800, Tokyo, Japan) were used to observe the morphology. In total, 1 mg of LA-1 or loganin was ultrasonically dispersed in 1 mL of deionized water. Then, 100 μL of the samples were dropped onto 10 × 10 mm mica sheets and air-dried overnight. The surface morphology was characterized by atomic force microscopy (AFM, Bruker, Multimode 8, Bruker, Billerica, Germany).

[9] = 22 h reperfusion, loganin 30 mg/kg i.v.
[10] = LA-1 10 mg/kg, loganin 30 mg/kg i.v.

| Structure (SMILES) | Cell viability (cytotoxicity) (BEnd.3 cells [1]) | Time at which plasma concentration was below the limit of detection / undetectable [2] [min] | half-life ([2]; male, Sprague-Dawley, rat) [min] | Decrease of cellular uptake in the presence of c(RGDfK) (BEnd.3 cells [3]) | Brain accumulation in ischemic brain tissue [4] | Pathophysiological changes in heart, liver, spleen and kidney tissue sections [5] | Intracellular amount over time (BEnd.3 cells [6]) | Cellular uptake of LA-1 relative to loganin (BEnd.3 cells [6]; 6 h incubation, n = 3) | Neurological score (Zelonga) (MCAO rats) | Infarct area versus model (TTC staining) (MCAO rats; [9]) | polydispersity index (PDI) [7] | Particle Size ([7]; mean ± SD) [nm] | Zeta Potential ([7]; mean ± SD) [mV] | Nanostructure morphology [8] | Plasma half-life [2] [min] | Infarct area (TTC staining) (MCAO rats; 22 h reperfusion, LA-1 10 mg/kg, loganin 30 mg/kg i.v.) [%] | H&E staining of cortical neurons (MCAO rats; [10]) | Nissl staining of neurons (MCAO rats; [10]) |
| --- | --- | --- | --- | --- | --- | --- | --- | --- | --- | --- | --- | --- | --- | --- | --- | --- | --- | --- |
| CC(C)[C@H](NC(=O)[C@H](CC(=O)O)NC(=O)CNC(=O)[C@H](CCCNC(=N)N)NC(=O)C1=CO[C@@H](O[C@@H]2O[C@H](CO)[C@@H](O)[C@H](O)[C@H]2O)[C@@H]2[C@@H](C)[C@@H](O)C[C@H]12)C(=O)O [LA-1, LA-Arg-Gly-Asp-Val] (X1-RGDV-OH) | no significant change | 90 | ~10 | approximately 3 fold | dramatically higher than that of loganin | No significant pathophysiological changes | continued to accumulate | approximately 2148 fold | – | – | – | – | – | – | – | – | – | – |
| CC1=NN(c2ccccc2)C(=O)C1 [edaravone, Edaravone] | – | – | – | – | – | – | – | – | reduction trend in neurological score but without statistically significant difference | significant infarct area reduction | – | – | – | – | – | – | – | – |
| COC(=O)C1=CO[C@@H](O[C@@H]2O[C@H](CO)[C@@H](O)[C@H](O)[C@H]2O)[C@@H]2[C@@H](C)[C@@H](O)C[C@H]12 [Loganin] | no significant change | 180 | – | – | – | – | reached a plateau after 3 h | – | reduction trend in neurological score but without statistically significant difference | significant infarct area reduction | 0.194 | 231.5 ± 81.23 | −4.16 ± 4.40 | irregular and unevenly dispersed | ~45 | 16.843 | improved the morphology, though to a lesser extent than LA-1 | the recovery was less pronounced compared to LA-1 |
